# Measured values from patent US6576620B2, “Method of identifying partial adenosine A1 receptor agonists” (CV Therapeutics, Inc., priority 1999, dated 2003).
# Like-named read-outs stand apart in the source and are kept apart here.
# Columns and labels:
# [1] = test system: guinea pig isolated heart; conditions: previous study (12); cited from earlier work
# [2] = test system: guinea pig isolated heart; assay: A-V nodal conduction time / S-H interval, isolated perfused heart; conditions: for EC50: Cavia porcellus; for S-H interval Efficacy: Table 5, 2759 = CVT-2759
# Experimental: This method evaluates the potencies of compounds to cause coronary vasodilation (A2A AdoR response) and to prolong A-V nodal conduction time (A1 AdoR response).
# Rats and guinea pigs, of either sex weighing from 230 to 260 grams and 300 to 350 grams, respectively, were used in this study. Animals were anesthetized by peritoneal injection of a cocktail containing ketamine and xylazine (ketamine 100 mg, xylazine 20 mg/ml). The chest was opened and the heart quickly removed. The heart was briefly rinse in ice-cold Krebs-Henseleit solution (see below), and the aorta cannulated. The heart was then perfused at a flow rate of 10 ml/min with modified Krebs-Henseleit (K-H) solution containing NaCl 117.9, KCl 4.5, CaCl2 2.5, MgSO4 1.18, KH2PO4 1.18, pyruvate 2.0 mmol. The K-H solution (pH 7.4) was gassed continuously with 95% O2 and 5% CO2 and warmed to 35±0.50° C. The heart was electrically paced at a fixed cycle length of […] (250 beats/min) using a bipolar electrode place on the left atrium. The electrical stimuli were generated by a Grass stimulator (Model S48, W. Warwick, R.I.) and delivered through a Stimuli Isolation Unit (Model SIU5, Astro-Med, Inc., NY) as square-wave pulses of 3-msec in duration and amplitude of at least twice the threshold intensity.
# A1 adenosine receptor-mediated depression of A-V nodal conduction time (negative dromotropic effect) was measured. Atrial and ventricular surface electrograms in rats and His bundle electrogram in guinea pigs, were recorded during constant atrial pacing.
# The effects of compounds on coronary conductance (A2A effect) and atrioventricular conduction time or stimulus-to-His-bundle (S-H) interval (A1 effect) was then determined. Hearts were instrumented for continuous recording of coronary perfusion pressure (A2A response) and atrioventricular (A-V) conduction time or S-H interval (A1 response). In each experiment, concentration-response relationship of compounds to increase coronary conductance and to prolong A-V conduction time or S-H interval was determined. After control measurements of CPP and A-V conduction time or S-H interval were made, progressive higher concentrations of the compound studied was administered until maximal coronary vasodilation and A-V nodal conduction time or S-H interval prolongation were achieved.
# Guinea pigs (Hartley) of either sex weighing 300-350 g were anaesthetized with methoxyflurane and killed by decapitation. The chest was cut open and the heart was removed quickly and rinsed in ice-cold modified Krebs-Henseleit (K-H) solution. The contents of the modified K-H solution were (in mM): NaCl 117.9, KCl 4.8, CaCl2 2.5, MgSO2 1.18, KH2PO4 1.2, Na2 EDTA 0.5, ascorbic acid 0.14, dextrose 5.5, pyruvic acid (sodium salt) 2.0, and NaHCO3 25. The K-H solution was continuously gassed with 95% oxygen and 5% CO2, and the pH was adjusted to a value of 7.4. To perfuse the heart by the Langendorff method, the transected aorta was slid onto a glass cannula and secured by a ligature. Retrograde perfusion of the aorta was initiated immediately at a constant flow of 10 ml min-′ with modified K-H solution warmed to 36.0±0.5° C. A side port in the cannula was used to connect the perfusion line to a Gould pressure transducer for measurement of coronary perfusion pressure. Coronary perfusion pressure was continuously recorded on a strip chart (Gould RS3400, Cleveland, Ohio) throughout each experiment. Coronary conductance (in ml min^−1 mmHg^−1) was calculated as the ratio of coronary flow (10 ml min^−1) to perfusion pressure (mm Hg). To facilitate the exit of fluid from the left ventricle, the leaflets of the mitral valve were trimmed with fine spring-handled scissors. When appropriate, hearts were paced at a constant rate using external electrodes. […]
# [3] = test system: guinea pig isolated heart; assay: Monophasic action potential duration, isolated heart; conditions: bolus (100 μl) of 1 mM adenosine
# Experimental: Signals were considered adequate if they were stable for at least 5-10 min and the amplitudes exceeded 10 mV. The data were digitized at 2 kHz by a DT-2801A digitizing board (Data Translation, Marlboro, Mass.) and were saved for analysis using the Snapshot data acquisition program (Snapshot Storage Scope, HEM Data Corp., Southfield, Mich.). The duration of the atrial and ventricular monophasic action potentials was measured from onset of depolarization to either 50 or 90% of repolarization.
# Adenosine A1 receptor [4] = assay: A1-agonist stimulated [35S]GTPγS binding to G proteins; assay type: biochemical; conditions: for GTPγS: Table 1, compounds of Example 2, normalized to the full agonist CPA; for GTPγS (% of CPA): Table 5
# Experimental: At the end of the incubation, each suspension was filtered and the retained radioactivity determined as described above.
# Adenosine A1 receptor [5] = biological target: T1, Adenosine A1 receptor (Cavia porcellus, UniProt P47745); assay: Affinity binding (Ki) of Tables 4 and 5
# T1 construct: from tissue; host or cells: guinea pig forebrain membranes
# T1 sequence (P47745 1-326): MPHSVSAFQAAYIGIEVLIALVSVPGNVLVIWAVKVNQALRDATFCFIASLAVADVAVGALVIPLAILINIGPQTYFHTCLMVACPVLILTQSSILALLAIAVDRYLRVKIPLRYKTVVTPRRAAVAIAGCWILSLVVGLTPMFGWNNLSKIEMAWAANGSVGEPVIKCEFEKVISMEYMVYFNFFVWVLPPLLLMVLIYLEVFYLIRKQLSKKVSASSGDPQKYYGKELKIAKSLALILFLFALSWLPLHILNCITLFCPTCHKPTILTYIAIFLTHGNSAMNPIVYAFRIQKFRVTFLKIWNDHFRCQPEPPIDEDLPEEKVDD
# Experimental: The binding affinity of a compound is evaluated in a competitive binding assay.
# [6] = Table 4, A-V nodal conduction time, read-out: EC50 A-V NCT
# [7] = Table 5, S-H interval, read-out: EC50
GTPγS (Adenosine A1 receptor [4]),GTPγS (% of CPA) (Adenosine A1 receptor [4]),"Ki (Adenosine A1 receptor [5]; Table 4, read-out: Ki low)","Ki (Adenosine A1 receptor [5]; Table 5, read-out: Ki)",SMILES,maximal increase of coronary conductance [1],adenosine concentration causing second-degree AV block ([2]; absence of Compound 6 of Example 2),duration of atrial monophasic action potential at 90% of repolarization [3],"EC50 [2, 6]",S-H interval Efficacy [2],"EC50 [2, 7]"
89%,89 % of CPA,0.9 µM,0.895 µM,"CCCNC(=S)OC[C@H]1O[C@@H](n2cnc3c(N[C@@H]4CCOC4)ncnc32)[C@H](O)[C@@H]1O [Compound 49 of Example 2, 2-{6-[((3R)oxolan-3-yl)amino]purin-9-yl}(4S,2R,3R,5R)-5-{[(propylamino)thioxomethoxy]methyl}oxolane-3,4-diol]",–,–,–,1.4 µM,Partial,–
–,84 % of CPA,0.5 µM,1.11 µM,CNC(=S)OC[C@H]1O[C@@H](n2cnc3c(N[C@@H]4CCOC4)nc(Cl)nc32)[C@H](O)[C@@H]1O [Compound 81 of Example 2],–,–,–,0.6 µM,Partial,0.53 µM
–,77 % of CPA,–,0.443 µM,"CCCNC(=S)OC[C@H]1O[C@@H](n2cnc3c(N[C@@H]4CCOC4)nc(Cl)nc32)[C@H](O)[C@@H]1O [Compound 83 of Example 2, 2-{6-[((3R)oxolan-3-yl)amino]-2-chloropurin-9-yl}(4S,2R,3R,5R)-5-{[(propylamino)thioxomethoxy]methyl}oxolane-3,4-diol]",–,–,–,–,Partial,0.61 µM

# The remaining lines, values behind:
SMILES,GTPγS (Adenosine A1 receptor [4]),GTPγS (% of CPA) (Adenosine A1 receptor [4]),"Ki (Adenosine A1 receptor [5]; Table 4, read-out: Ki low)","Ki (Adenosine A1 receptor [5]; Table 5, read-out: Ki)",maximal increase of coronary conductance [1],adenosine concentration causing second-degree AV block ([2]; absence of Compound 6 of Example 2),duration of atrial monophasic action potential at 90% of repolarization [3],"EC50 [2, 6]",S-H interval Efficacy [2],"EC50 [2, 7]"
Nc1ncnc2c1ncn2[C@@H]1O[C@H](CO)[C@@H](O)[C@H]1O [Adenosine],–,–,–,–,0.15±0.02 ml min^−1 mmHg^−1,6 µM,22 ± 5 ms,–,–,–
"O=C(NC1CCCC1)OC[C@H]1O[C@@H](n2cnc3c(N[C@@H]4CCOC4)nc(Cl)nc32)[C@H](O)[C@@H]1O [Compound 69 of Example 2, [(5-{6-[((3R)oxolan-3-yl)amino]-2-chloropurin-9-yl}(3S,2R,4R,5R)-3,4-dihydroxyoxolan-2-yl)methoxy]-N-cyclopentylcarboxamide]",50%,69 % of CPA,–,> 1.46 µM,–,–,–,–,Partial (= 2759),–
